{"source": "paper PMC7587356", "about": "“High-Throughput Screening for Inhibitors of the SARS-CoV-2 Protease Using a FRET-Biosensor” (Molecules, 2020)", "target": "SARS-CoV-2 3CLpro (Severe acute respiratory syndrome coronavirus 2, UniProt P0DTD1)", "experiment": "biochemical", "assay_type": "biochemical", "parameters": "Replicate_1 / Replicate_2 / mean / mean (LOPAC_screen_w_protease): unit not given here", "details": "for inhibition at 5 µM: 4 h", "key": {"[1]": {"details": "LOPAC1280 primary screen with protease, 5 µM compound, replicate 1, read-out: Replicate_1 (LOPAC_screen_w_protease)"}, "[2]": {"details": "LOPAC1280 primary screen with protease, 5 µM compound, replicate 2, read-out: Replicate_2 (LOPAC_screen_w_protease)"}, "[3]": {"details": "LOPAC1280 primary screen with protease, 5 µM compound, mean of two replicates"}, "[4]": {"details": "LOPAC1280 primary screen with protease, 5 µM compound, mean of the two replicates"}, "[5]": {"details": "sheet LOPAC_screen_w_protease, primary screen with protease, compound at 5 µM, mean of two replicates"}, "[6]": {"details": "sheet LOPAC_screen_w_protease, primary screen with protease, compound at 5 µM, replicate 1"}, "[7]": {"details": "sheet LOPAC_screen_w_protease, primary screen with protease, compound at 5 µM, replicate 2"}, "[8]": {"details": "LOPAC1280 primary screen with protease, 5 µM compound, replicate 1"}, "[9]": {"details": "LOPAC1280 primary screen with protease, 5 µM compound, replicate 2"}, "[10]": {"details": "sheet LOPAC_screen_w_protease, primary screen with protease, mean of two replicates"}, "[11]": {"details": "sheet LOPAC_screen_w_protease, primary screen with protease, replicate 1"}, "[12]": {"details": "sheet LOPAC_screen_w_protease, primary screen with protease, replicate 2"}}, "note": "Counter-ions that a name gives are not always drawn. Like-named read-outs stand apart in the source and are kept apart here."}
{"smiles": "C#CCOC(=O)C1=CCCN(C)C1", "note": "[Arecaidine propargyl ester hydrobromide]", "values": [{"measurement": "inhibition at 5 µM", "setting": "sheet LOPAC_screen_w_protease, LOPAC1280 at 5 µM, mean of two replicates, read-out: mean", "result": 1.23, "unit": "%"}, {"measurement": "inhibition at 5 µM", "setting": "sheet LOPAC_screen_w_protease, LOPAC1280 at 5 µM, replicate 1, read-out: Replicate_1", "result": 0.854, "unit": "%"}, {"measurement": "inhibition at 5 µM", "setting": "sheet LOPAC_screen_w_protease, LOPAC1280 at 5 µM, replicate 2, read-out: Replicate_2", "result": 1.62, "unit": "%"}]}
{"smiles": "COC(=O)C1=CCCN(C)C1", "note": "[Arecoline hydrobromide]", "values": [{"measurement": "inhibition at 5 µM", "setting": "[1]", "result": 1.64, "unit": "%"}, {"measurement": "inhibition at 5 µM", "setting": "[2]", "result": 1.16, "unit": "%"}, {"measurement": "mean (LOPAC_screen_w_protease)", "setting": "[3]", "result": 1.398}]}
{"smiles": "CC1=C(/C=C/C(C)=C/C=C/C(C)=C/C=C/C=C(C)/C=C/C=C(C)/C=C/C2=C(C)C(=O)[C@@H](O)CC2(C)C)C(C)(C)C[C@H](O)C1=O", "note": "[Astaxanthin]", "values": [{"measurement": "inhibition at 5 µM", "setting": "sheet LOPAC_screen_w_protease, primary screen of LOPAC1280 at 5 µM with protease, mean of the two replicates, read-out: mean", "result": 3.4, "unit": "%"}, {"measurement": "inhibition at 5 µM", "setting": "sheet LOPAC_screen_w_protease, primary screen of LOPAC1280 at 5 µM with protease, replicate 1, read-out: Replicate_1", "result": 2.58, "unit": "%"}, {"measurement": "inhibition at 5 µM", "setting": "sheet LOPAC_screen_w_protease, primary screen of LOPAC1280 at 5 µM with protease, replicate 2, read-out: Replicate_2", "result": 4.22, "unit": "%"}]}
{"smiles": "C[N+]1(C)[C@@H]2CC[C@H]1C[C@@H](OC(=O)C(CO)c1ccccc1)C2", "note": "(stereo partly drawn) [Atropine methyl bromide]", "values": [{"measurement": "inhibition at 5 µM", "setting": "[1]", "result": 2.3, "unit": "%"}, {"measurement": "inhibition at 5 µM", "setting": "[2]", "result": 1.25, "unit": "%"}, {"measurement": "mean (LOPAC_screen_w_protease)", "setting": "[4]", "result": 1.779}]}
{"smiles": "C[N+]1(C)[C@@H]2CC[C@H]1C[C@@H](OC(=O)C(CO)c1ccccc1)C2", "note": "(stereo partly drawn) [Atropine methyl nitrate]", "values": [{"measurement": "inhibition at 5 µM", "setting": "sheet LOPAC_screen_w_protease, primary screen with protease, 5 µM, mean of two replicates, read-out: mean", "result": -0.0687, "unit": "%"}, {"measurement": "inhibition at 5 µM", "setting": "sheet LOPAC_screen_w_protease, primary screen with protease, 5 µM, replicate 1, read-out: Replicate_1", "result": 0.687, "unit": "%"}, {"measurement": "inhibition at 5 µM", "setting": "sheet LOPAC_screen_w_protease, primary screen with protease, 5 µM, replicate 2, read-out: Replicate_2", "result": -0.825, "unit": "%"}]}
{"smiles": "O=C(O)C1=CC(=C(c2ccc(O)c(C(=O)O)c2)c2ccc(O)c(C(=O)O)c2)C=CC1=O", "note": "[Aurintricarboxylic acid, reference compound]", "values": [{"measurement": "inhibition at 5 µM", "setting": "read-out: Replicate_1 (LOPAC screen with protease)", "result": 31.5, "unit": "%"}, {"measurement": "inhibition at 5 µM", "setting": "read-out: Replicate_2 (LOPAC screen with protease)", "result": 31.9, "unit": "%"}, {"measurement": "inhibition at 5 µM", "setting": "read-out: mean (LOPAC screen with protease)", "result": 31.7, "unit": "%"}]}
{"smiles": "Cn1cnc([N+](=O)[O-])c1Sc1ncnc2nc[nH]c12", "note": "[Azathioprine]", "values": [{"measurement": "mean (LOPAC_screen_w_protease)", "result": 1.638}, {"measurement": "inhibition at 5 µM", "setting": "read-out: Replicate_1 (LOPAC_screen_w_protease)", "result": 1.71, "unit": "%"}, {"measurement": "inhibition at 5 µM", "setting": "read-out: Replicate_2 (LOPAC_screen_w_protease)", "result": 1.57, "unit": "%"}]}
{"smiles": "O=C(O)CCCCCCCC(=O)O", "note": "[Azelaic acid]", "values": [{"measurement": "inhibition at 5 µM", "setting": "sheet LOPAC_screen_w_protease, LOPAC1280 primary screen at 5 µM, with protease, mean of the two replicates, read-out: mean", "result": 0.767, "unit": "%"}, {"measurement": "inhibition at 5 µM", "setting": "sheet LOPAC_screen_w_protease, LOPAC1280 primary screen at 5 µM, with protease, replicate 1, read-out: Replicate_1", "result": 1.56, "unit": "%"}, {"measurement": "inhibition at 5 µM", "setting": "sheet LOPAC_screen_w_protease, LOPAC1280 primary screen at 5 µM, with protease, replicate 2, read-out: Replicate_2", "result": -0.0221, "unit": "%"}]}
{"smiles": "CCN1CCc2nc(N)oc2CC1.Cl.Cl", "note": "[B-HT 933 dihydrochloride]", "values": [{"measurement": "mean", "setting": "[5]", "result": 2.82}, {"measurement": "Replicate_1", "setting": "[6]", "result": 2.163}, {"measurement": "Replicate_2", "setting": "[7]", "result": 3.476}]}
{"smiles": "COc1ccccc1N1CCN(CCN2C(=O)CC3(CCCC3)CC2=O)CC1.Cl.Cl", "note": "[BMY 7378 dihydrochloride]", "values": [{"measurement": "mean", "setting": "[5]", "result": 2.822}, {"measurement": "Replicate_1", "setting": "[6]", "result": 2.1144}, {"measurement": "Replicate_2", "setting": "[7]", "result": 3.53}]}
{"smiles": "COc1ccccc1N1CCN(CCCCNC(=O)c2ccc3ccccc3c2)CC1", "note": "[BP 897]", "values": [{"measurement": "inhibition at 5 µM", "setting": "[1]", "result": 0.668, "unit": "%"}, {"measurement": "inhibition at 5 µM", "setting": "[2]", "result": 1.98, "unit": "%"}, {"measurement": "mean (LOPAC_screen_w_protease)", "setting": "[3]", "result": 1.323}]}
{"smiles": "OC(CN1CCN(c2cccc(Cl)c2)CC1)C(c1ccccc1)c1ccccc1", "note": "(stereo not drawn) [BRL 15572]", "values": [{"measurement": "mean (LOPAC_screen_w_protease)", "setting": "[4]", "result": 1.912}, {"measurement": "Replicate_1 (LOPAC_screen_w_protease)", "setting": "[8]", "result": 0.6201}, {"measurement": "Replicate_2 (LOPAC_screen_w_protease)", "setting": "[9]", "result": 3.204}]}
{"smiles": "C[C@H](Cc1ccc(OCC(=O)[O-])cc1)NC[C@H](O)c1cccc(Cl)c1.[Na+]", "note": "[BRL 37344 sodium]", "values": [{"measurement": "mean", "setting": "[10]", "result": 2.226}, {"measurement": "Replicate_1", "setting": "[11]", "result": 0.8642}, {"measurement": "Replicate_2", "setting": "[12]", "result": 3.588}]}
{"smiles": "Cc1ccc([N+](=O)[O-])cc1S(=O)(=O)N(C)C", "note": "[BRL 50481]", "values": [{"measurement": "mean (LOPAC_screen_w_protease)", "setting": "[3]", "result": 1.647}, {"measurement": "Replicate_1 (LOPAC_screen_w_protease)", "setting": "[8]", "result": 1.025}, {"measurement": "Replicate_2 (LOPAC_screen_w_protease)", "setting": "[9]", "result": 2.268}]}
{"smiles": "Cl.O=C(Cc1ccc(Cl)c(Cl)c1)N1CCCCC1CN1CCCC1", "note": "(stereo not drawn) [BRL 52537 hydrochloride]", "values": [{"measurement": "mean (LOPAC_screen_w_protease)", "setting": "[3]", "result": 1.672}, {"measurement": "Replicate_1 (LOPAC_screen_w_protease)", "setting": "[8]", "result": 2.192}, {"measurement": "Replicate_2 (LOPAC_screen_w_protease)", "setting": "[9]", "result": 1.152}]}
{"smiles": "CN1CCC(c2c[nH]c3ccc(O)cc23)CC1.O=C(O)/C=C\\C(=O)O", "note": "[BRL 54443 maleate]", "values": [{"measurement": "mean", "setting": "[10]", "result": 2.426}, {"measurement": "Replicate_1", "setting": "[11]", "result": 0.4828}, {"measurement": "Replicate_2", "setting": "[12]", "result": 4.37}]}
{"smiles": "Cl.c1ccc2sc(C3(N4CCCCC4)CCCCC3)cc2c1", "note": "[BTCP hydrochloride]", "values": [{"measurement": "mean (LOPAC_screen_w_protease)", "setting": "[4]", "result": 2.11}, {"measurement": "Replicate_1 (LOPAC_screen_w_protease)", "setting": "[8]", "result": 1.768}, {"measurement": "Replicate_2 (LOPAC_screen_w_protease)", "setting": "[9]", "result": 2.452}]}
{"smiles": "Cl.c1ccc2nc(C3=NCCN3)ccc2c1", "note": "[BU224 hydrochloride]", "values": [{"measurement": "mean (LOPAC_screen_w_protease)", "setting": "[3]", "result": 1.603}, {"measurement": "Replicate_1 (LOPAC_screen_w_protease)", "setting": "[8]", "result": 1.353}, {"measurement": "Replicate_2 (LOPAC_screen_w_protease)", "setting": "[9]", "result": 1.8522}]}
{"smiles": "S=C=Nc1ccc2oc(C3=NCCN3)cc2c1", "note": "[BU99006]", "values": [{"measurement": "Replicate_1", "result": 4.032}, {"measurement": "Replicate_2", "result": 1.831}, {"measurement": "mean", "result": 2.931}]}
